Columns and labels:
Type in all cases: functional
Conditions in all cases: read-out: GI
[1] = test system: ACHN; experiment: Anticancer activity against human ACHN cells assessed as cell growth inhibition at 10 uM incubated for 48 hrs by SRB assay relative to control
[2] = test system: HL-60(TB); experiment: Anticancer activity against human HL-60(TB) cells assessed as cell growth inhibition at 10 uM incubated for 48 hrs by SRB assay relative to control
[3] = test system: NCI-H226; experiment: Anticancer activity against human NCI-H226 cells assessed as cell growth inhibition at 10 uM incubated for 48 hrs by SRB assay relative to control
[4] = test system: NCI/ADR-RES; experiment: Anticancer activity against human NCI/ADR-RES cells assessed as cell growth inhibition at 10 uM incubated for 48 hrs by SRB assay relative to control
[5] = test system: SK-MEL-28; experiment: Anticancer activity against human SK-MEL-28 cells assessed as cell growth inhibition at 10 uM incubated for 48 hrs by SRB assay relative to control
[6] = test system: HCC 2998; experiment: Anticancer activity against human HCC 2998 cells assessed as cell growth inhibition at 10 uM incubated for 48 hrs by SRB assay relative to control
[7] = test system: SF-295; experiment: Anticancer activity against human SF-295 cells assessed as cell growth inhibition at 10 uM incubated for 48 hrs by SRB assay relative to control
[8] = test system: DU-145; experiment: Anticancer activity against human DU-145 cells assessed as cell growth inhibition at 10 uM incubated for 48 hrs by SRB assay relative to control
[9] = test system: CAKI-1; experiment: Anticancer activity against human CAKI-1 cells assessed as cell growth inhibition at 10 uM incubated for 48 hrs by SRB assay relative to control
[10] = test system: SW-620; experiment: Anticancer activity against human SW-620 cells assessed as cell growth inhibition at 10 uM incubated for 48 hrs by SRB assay relative to control
[11] = test system: UACC-257; experiment: Anticancer activity against human UACC-257 cells assessed as cell growth inhibition at 10 uM incubated for 48 hrs by SRB assay relative to control
[12] = test system: IGROV-1; experiment: Anticancer activity against human IGROV-1 cells assessed as cell growth inhibition at 10 uM incubated for 48 hrs by SRB assay relative to control
[13] = test system: UACC-62; experiment: Anticancer activity against human UACC-62 cells assessed as cell growth inhibition at 10 uM incubated for 48 hrs by SRB assay relative to control
[14] = test system: SK-OV-3; experiment: Anticancer activity against human SK-OV-3 cells assessed as cell growth inhibition at 10 uM incubated for 48 hrs by SRB assay relative to control
[15] = test system: HCT-116; experiment: Anticancer activity against human HCT-116 cells assessed as cell growth inhibition at 10 uM incubated for 48 hrs by SRB assay relative to control
[16] = test system: SR; experiment: Anticancer activity against human SR cells assessed as cell growth inhibition at 10 uM incubated for 48 hrs by SRB assay relative to control
[17] = test system: BT-549; experiment: Anticancer activity against human BT-549 cells assessed as cell growth inhibition at 10 uM incubated for 48 hrs by SRB assay relative to control
[18] = test system: MDA-MB-435; experiment: Anticancer activity against human MDA-MB-435 cells assessed as cell growth inhibition at 10 uM incubated for 48 hrs by SRB assay relative to control
[19] = test system: NCI-H322M; experiment: Anticancer activity against human NCI-H322M cells assessed as cell growth inhibition at 10 uM incubated for 48 hrs by SRB assay relative to control
[20] = test system: CCRF-CEM; experiment: Anticancer activity against human CCRF-CEM cells assessed as cell growth inhibition at 10 uM incubated for 48 hrs by SRB assay relative to control

SMILES	inhibition of growth at 10 µM [1] [%]	inhibition of growth at 10 µM [2] [%]	inhibition of growth at 10 µM [3] [%]	inhibition of growth at 10 µM [4] [%]	inhibition of growth at 10 µM [5] [%]	inhibition of growth at 10 µM [6] [%]	inhibition of growth at 10 µM [7] [%]	inhibition of growth at 10 µM [8] [%]	inhibition of growth at 10 µM [9] [%]	inhibition of growth at 10 µM [10] [%]	inhibition of growth at 10 µM [11] [%]	inhibition of growth at 10 µM [12] [%]	inhibition of growth at 10 µM [13] [%]	inhibition of growth at 10 µM [14] [%]	inhibition of growth at 10 µM [15] [%]	inhibition of growth at 10 µM [16] [%]	inhibition of growth at 10 µM [17] [%]	inhibition of growth at 10 µM [18] [%]	inhibition of growth at 10 µM [19] [%]	inhibition of growth at 10 µM [20] [%]
NNc1nc(Nc2ccccc2)nc(Nc2ccc(S(N)(=O)=O)cc2)n1	< 10	< 10	< 10	< 10	< 10	< 10	< 10	< 10	< 10	< 10	< 10	< 10	< 10	< 10	< 10	32	< 10	< 10	< 10	< 10
NS(=O)(=O)c1ccc(Nc2nc(N/N=C/c3ccc4c(c3)OCO4)nc(Nc3ccccc3)n2)cc1	42	68	34	< 10	32	76	35	58	54	50	15	63	21	34	63	79	23	40	38	83
NS(=O)(=O)c1ccc(Nc2nc(N/N=C/c3c[nH]c4ccccc34)nc(Nc3ccccc3)n2)cc1	18	65	58	< 10	54	47	68	56	46	50	36	66	61	< 10	84	87	51	68	45	87

— ChEMBL document CHEMBL5154747, “Discovery of new carbonic anhydrase IX inhibitors as anticancer agents by toning the hydrophobic and hydrophilic rims of the active site to encounter the dual-tail approach” (Eur J Med Chem, 2022)
